Target: T1, human NK3 receptor (Homo sapiens, UniProt P29371)
T1 construct: expressed in transfected cells; host or cells: HEK293 cells (transient expression), membrane preparation
T1 sequence (P29371 1-465): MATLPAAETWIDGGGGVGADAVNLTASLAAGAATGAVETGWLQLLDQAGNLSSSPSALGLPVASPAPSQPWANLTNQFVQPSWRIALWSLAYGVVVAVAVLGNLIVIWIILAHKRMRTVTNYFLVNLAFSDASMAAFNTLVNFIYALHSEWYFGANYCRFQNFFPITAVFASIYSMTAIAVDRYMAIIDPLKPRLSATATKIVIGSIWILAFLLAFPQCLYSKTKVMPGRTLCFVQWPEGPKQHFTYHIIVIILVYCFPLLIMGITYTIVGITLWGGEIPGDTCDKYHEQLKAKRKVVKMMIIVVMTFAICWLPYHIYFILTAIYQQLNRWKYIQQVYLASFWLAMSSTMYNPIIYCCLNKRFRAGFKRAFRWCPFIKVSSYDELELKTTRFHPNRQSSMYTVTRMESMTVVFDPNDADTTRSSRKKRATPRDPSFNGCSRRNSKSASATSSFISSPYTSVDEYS
Test: [3H]SR142801 competition binding assay (hNK3 receptor binding)
Conditions: [3H]SR142801 radioligand; membranes from HEK293 cells transiently expressing recombinant human NK3 receptor; Ki by Cheng-Prussoff; read-out: KiNK3 h
Protocol: [^3H]SR^142801 Competition Binding Assay
hNK3 receptor binding experiment were performed using [^3H]SR^142801 (Catalog No. TRK1035, specific activity: 74.0 Ci/mmol, Amersham, GE Healthcare UK limited, Buckinghamshire, UK) and membrane isolated from HEK293 cells transiently expressing recombinant human NK3 receptor. After thawing, the membrane homogenates were centrifuged at 48,000×g for 10 min at 4° C., the pellets were resuspended in the 50 mM Tris-HCl, 4 mM MnCl2, 1 μM phosphoramidon, 0.1% BSA binding buffer at pH 7.4 to a final assay concentration of 5 μg protein/well. […] At the end of the incubation, membranes were filtered onto unitfilter (96-well white microplate with bonded GF/C filter preincubated 1 h in 0.3% PEI +0.3% BSA, Packard BioScience, Meriden, Conn.) with a Filtermate 196 harvester (Packard BioScience) and washed 4 times with ice-cold 50 mM Tris-HCl, pH 7.4 buffer. Nonspecific binding was measured in the presence of 10 μM SB222200 for both radioligands. The radioactivity on the filter was counted (5 min) on a Packard Top-count microplate scintillation counter with quenching correction after addition of 45 μl of microscint 40 (Canberra Packard S.A., Zutrich, Switzerland) and shaking for 1 h. Inhibition curves were fitted according to the Hill equation: y=100/(1+(x/IC50)^nH), where nH=slope factor using Excel-fit 4 software (Microsoft). IC50 values were derived from the inhibition curve and the affinity constant (Ki) values were calculated using the Cheng-Prussoff equation Ki=IC50/(1+[L]/KD) where [L] is the concentration of radioligand and KD is its dissociation constant at the receptor, derived from the saturation isotherm. All experiments were performed in duplicate and the mean ± standard error (SEM) of the individual Ki values was calculated.

| Compound | Ki [nM] |
| --- | --- |
| C[C@H](Oc1ccc(C#N)cn1)[C@H]1CN(C(=O)c2ccc(-n3cccn3)nc2)C[C@@H]1c1ccc(Cl)c(Cl)c1 (racemic) [Example 65, 6-{(SR)-1-[(3RS,4SR)-4-(3 ,4-Dichloro-phenyl)-1-(6-pyrazol-1-yl-pyridine-3-carbonyl)-pyrrolidin-3-yl]-ethoxy}-nicotinonitrile] | 2.6 |
| C[C@H](Oc1ccc(C#N)cn1)[C@H]1CN(C(=O)c2ccc(S(C)(=O)=O)nc2)C[C@@H]1c1ccc(Cl)c(Cl)c1 (racemic) [Example 66, 6-{(SR)-1-[(3RS,4SR)-4-(3,4-Dichloro-phenyl)-1-(6-methanesulfonyl-pyridine-3-carbonyl)-pyrrolidin-3-yl]-ethoxy}-nicotinonitrile] | 3.8 |
| C[C@H](Oc1ccc(C#N)cn1)[C@H]1CN(C(=O)c2ccc(C#N)cc2F)C[C@@H]1c1ccc(Cl)c(Cl)c1 (racemic) [Example 67, 6-{(SR)-1-[(3RS,4SR)-1-(4-Cyano-2-fluoro-benzoyl)-4-(3,4-dichloro-phenyl)-pyrrolidin-3-yl]-ethoxy}-nicotinonitrile] | 5.8 |
| Cc1ccc(C(=O)N2C[C@H]([C@H](C)Oc3ccc(C#N)cn3)[C@@H](c3ccc(Cl)c(Cl)c3)C2)cn1 (racemic) [Example 68, 6-{(SR)-1-[(3RS,4SR)-4-(3,4-Dichloro-phenyl)-1-(6-methyl-pyridine-3-carbonyl)-pyrrolidin-3-yl]-ethoxy}-nicotinonitrile] | 14.7 |
| C[C@H](Oc1ccc(C#N)cn1)[C@H]1CN(C(=O)c2ccc3[nH]cnc3c2)C[C@@H]1c1ccc(Cl)c(Cl)c1 (racemic) [Example 69, 6-{(SR)-1-[(3RS,4SR)-1-(1H-Benzoimidazole-5-carbonyl)-4-(3,4-dichloro-phenyl)-pyrrolidin-3-yl]-ethoxy}-nicotinonitrile] | 28.9 |
| COc1ncc(C(=O)N2C[C@H]([C@H](C)Oc3ccc(C#N)cn3)[C@@H](c3ccc(Cl)c(Cl)c3)C2)cn1 (racemic) [Example 70, 6-{(SR)-1-[(3RS,4SR)-4-(3,4-Dichloro-phenyl)-1-(2-methoxy-pyrimidine-5-carbonyl)-pyrrolidin-3-yl]-ethoxy}-nicotinonitrile] | 34.9 |
| C[C@H](Oc1ccc(C#N)cn1)[C@H]1CN(C(=O)c2ccc(-n3ccnc3)nc2)C[C@@H]1c1ccc(Cl)c(Cl)c1 (racemic) [Example 71, 6-{(SR)-1-[(3RS,4SR)-4-(3,4-Dichloro-phenyl)-1-(6-imidazol-1-yl-pyridine-3-carbonyl)-pyrrolidin-3-yl]-ethoxy}-nicotinonitrile] | 6.1 |
| C[C@H](Oc1ccc(C#N)cn1)[C@H]1CN(C(=O)c2ccc(C(F)(F)F)nc2)C[C@@H]1c1ccc(Cl)c(Cl)c1 (racemic) [Example 72, 6-{(SR)-1-[(3RS,4SR)-4-(3,4-Dichloro-phenyl)-1-(6-trifluoromethyl-pyridine-3-carbonyl)-pyrrolidin-3-yl]-ethoxy}-nicotinonitrile] | 20.9 |
| Cc1cncc(C(=O)N2C[C@H]([C@H](C)Oc3ccc(C#N)cn3)[C@@H](c3ccc(Cl)c(Cl)c3)C2)c1 (racemic) [Example 73, 6-{(SR)-1-[(3RS,4SR)-4-(3,4-Dichloro-phenyl)-1-(5-methyl-pyridine-3-carbonyl)-pyrrolidin-3-yl]-ethoxy}-nicotinonitrile] | 6.8 |
| C[C@H](Oc1ccc(C#N)cn1)[C@H]1CN(C(=O)c2cncc(F)c2)C[C@@H]1c1ccc(Cl)c(Cl)c1 (racemic) [Example 74, 6-{(SR)-1-[(3RS,4SR)-4-(3,4-Dichloro-phenyl)-1-(5-fluoro-pyridine-3-carbonyl)-pyrrolidin-3-yl]-ethoxy}-nicotinonitrile] | 18.6 |
| C[C@H](Oc1ccc(C#N)cn1)[C@H]1CN(C(=O)c2ccc(F)nc2)C[C@@H]1c1ccc(Cl)c(Cl)c1 (racemic) [Example 75, 6-{(SR)-1-[(3RS,4SR)-4-(3,4-Dichloro-phenyl)-1-(6-fluoro-pyridine-3-carbonyl)-pyrrolidin-3-yl]-ethoxy}-nicotinonitrile] | 33.6 |
| C[C@H](Oc1ccc(C#N)cn1)[C@H]1CN(C(=O)c2ccc(OCC(F)(F)F)nc2)C[C@@H]1c1ccc(Cl)c(Cl)c1 (racemic) [Example 76, 6-((SR)-1-{(3RS,4SR)-4-(3,4-Dichloro-phenyl)-1-[6-(2,2,2-trifluoro-ethoxy)-pyridine-3-carbonyl]-pyrrolidin-3-yl}-ethoxy)-nicotinonitrile] | 3.5 |
| C[C@H](Oc1ccc(C#N)cn1)[C@H]1CN(C(=O)c2ccnnc2)C[C@@H]1c1ccc(Cl)c(Cl)c1 (racemic) [Example 77, 6-{(SR)-1-[(3RS,4SR)-4-(3,4-Dichloro-phenyl)-1-(pyridazine-4-carbonyl)-pyrrolidin-3-yl]-ethoxy}-nicotinonitrile] | 32.8 |
| Cc1cc(C(=O)N2C[C@H]([C@H](C)Oc3ccc(C#N)cn3)[C@@H](c3ccc(Cl)c(Cl)c3)C2)c(Cl)nn1 (racemic) [Example 78, 6-{(SR)-1-[(3RS,4SR)-1-(3-Chloro-6-methyl-pyridazine-4-carbonyl)-4-(3,4-dichloro-phenyl)-pyrrolidin-3-yl]-ethoxy}-nicotinonitrile] | 27.2 |
| Cc1ncc(C(=O)N2C[C@H]([C@H](C)Oc3ccc(C(F)(F)F)cn3)[C@@H](c3ccc(Cl)c(Cl)c3)C2)cn1 (racemic) [Example 79, {(3SR,4RS)-3-(3,4-Dichloro-phenyl)-4-[(SR)-1-(5-trifluoromethyl-pyridin-2-yloxy)-ethyl]-pyrrolidin-1-yl}-(2-methyl-pyrimidin-5-yl)-methanone] | 27.2 |
| C[C@H](Oc1ccc(C(F)(F)F)cn1)[C@H]1CN(C(=O)c2ccc(-n3cccn3)nc2)C[C@@H]1c1ccc(Cl)c(Cl)c1 (racemic) [Example 80, {(3SR,4RS)-3-(3,4-Dichloro-phenyl)-4-[(SR)-1-(5-trifluoromethyl-pyridin-2-yloxy)-ethyl]-pyrrolidin-1-yl}-(6-pyrazol-1-yl-pyridin-3-yl)-methanone] | 1.5 |
| C[C@H](Oc1ccc(C(F)(F)F)cn1)[C@H]1CN(C(=O)c2ccc(Cl)nc2)C[C@@H]1c1ccc(Cl)c(Cl)c1 (racemic) [Example 81, (6-Chloro-pyridin-3-yl)-{(3SR,4RS)-3-(3,4-dichloro-phenyl)-4-[(SR)-1-(5-trifluoromethyl-pyridin-2-yloxy)-ethyl]-pyrrolidin-1-yl}-methanone] | 4.8 |
| C[C@H](Oc1ccc(C(F)(F)F)cn1)[C@H]1CN(C(=O)c2ccnc(Cl)c2)C[C@@H]1c1ccc(Cl)c(Cl)c1 (racemic) [Example 82, (2-Chloro-pyridin-4-yl)-{(3SR,4RS)-3-(3,4-dichloro-phenyl)-4-[(SR)-1-(5-trifluoromethyl-pyridin-2-yloxy)-ethyl]-pyrrolidin-1-yl}-methanone] | 3.2 |
| Cc1noc(-c2ccc(C(=O)N3C[C@H]([C@H](C)Oc4ccc(C(F)(F)F)cn4)[C@@H](c4ccc(Cl)c(Cl)c4)C3)cc2)n1 (racemic) [Example 83, {(3SR,4RS)-3-(3,4-Dichloro-phenyl)-4-[(SR)-1-(5-trifluoromethyl-pyridin-2-yloxy)-ethyl]-pyrrolidin-1-yl}-[4-(3-methyl-[1,2,4]oxadiazol-5-yl)-phenyl]-methanone] | 0.6 |
| C[C@H](Oc1ccc(C(F)(F)F)cn1)[C@H]1CN(C(=O)c2cnc(C3CC3)nc2)C[C@@H]1c1ccc(Cl)c(Cl)c1 (racemic) [Example 85, (2-Cyclopropyl-pyrimidin-5-yl)-{(3SR,4RS)-3-(3,4-dichloro-phenyl)-4-[(SR)-1-(5-trifluoromethyl-pyridin-2-yloxy)-ethyl]-pyrrolidin-1-yl}-methanone] | 7.5 |
| CCc1ncc(C(=O)N2C[C@H]([C@H](C)Oc3ccc(C#N)cn3)[C@@H](c3ccc(Cl)c(Cl)c3)C2)cc1C (racemic) [Example 86, 6-{(SR)-1-[(3RS,4SR)-4-(3,4-Dichloro-phenyl)-1-(6-ethyl-5-methyl-pyridine-3-carbonyl)-pyrrolidin-3-yl]-ethoxy}-nicotinonitrile] | 4.3 |

Source: patent US8012998B2, “Pyrrolidine aryl-ether as NK-3 receptor antagonists” (Hoffmann—LA Roche Inc., priority 2007, dated 2011)
